Like-named read-outs stand apart in the source and are kept apart here.
How the values were obtained:
ducksalad = test: Test B flooded paddy test; assay type: in vivo, Heteranthera limosa; conditions: 250 g ai/ha, Flood; scale of 0 to 100 where 0 is no effect and 100 is complete control
How it was run: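 Plants were grown to the 2-leaf stage, then pots were flooded to 3 cm above the soil and compound was applied directly into the paddy water, with that depth held throughout. After 13 to 15 days in a greenhouse, injury was rated visually against untreated controls on a 0 to 100 scale (100 = complete control).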

barnyardgrass = test: Test A pre-/postemergence herbicide test; assay type: in vivo, Echinochloa crus-galli; conditions: for pest or weed control at 500 g/ha: 500 g ai/ha, 0 to 100 scale (0 no effect, 100 complete control)
How it was run: (§1)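 Seeds sown in loam soil/sand blend received a preemergence directed soil spray of test chemical in non-phytotoxic solvent with surfactant; postemergence plants (2–10 cm, one- to two-leaf stage) were sprayed with the same formulation. After about 10 days in greenhouse, injury was rated visually versus untreated controls, 0 (no effect) to 100 (complete control).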

wheat = test: Test A pre-/postemergence herbicide test; assay type: in vivo, Triticum aestivum; conditions: for plant injury at 500 g/ha: 500 g ai/ha
How it was run: as §1

wheat (winter wheat) = test: Test C pre-/postemergence herbicide test; assay type: in vivo, Triticum aestivum
How it was run: (§2)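 Visual rating, 0 (no effect) to 100 (complete control), versus untreated controls after 13 to 15 days in the greenhouse. Pre: seeds in loam/sand, sprayed at planting. Post: 1- to 4-leaf plants (2 to 18 cm) in peat-based mix. Compounds in non-phytotoxic solvent plus surfactant.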

galium = test: Test C pre-/postemergence herbicide test; assay type: in vivo, Galium aparine
How it was run: as §2

nutsedge, yellow = test: Test C pre-/postemergence herbicide test; assay type: in vivo, Cyperus esculentus
How it was run: as §2

blackgrass = test: Test C pre-/postemergence herbicide test; assay type: in vivo, Alopecurus myosuroides
How it was run: as §2

pigweed = test: Test A pre-/postemergence herbicide test; assay type: in vivo, Amaranthus retroflexus; conditions: for pest or weed control at 500 g/ha: 500 g ai/ha
How it was run: as §1

ryegrass, Italian = test: Test C pre-/postemergence herbicide test; assay type: in vivo, Lolium multiflorum
How it was run: as §2

oilseed rape = test: Test C pre-/postemergence herbicide test; assay type: in vivo, Brassica napus
How it was run: as §2

[1] = Preemergence, 125 g ai/ha, visual rating on 0 to 100 scale (0 no effect, 100 complete control)
[2] = Postemergence, 31 g ai/ha, scale 0 (no effect) to 100 (complete control)
[3] = Postemergence, 62 g ai/ha, scale 0 to 100 (0 no effect, 100 complete control)
[4] = Postemergence, 125 g ai/ha, scale 0 to 100 (0 no effect, 100 complete control)
[5] = Postemergence, 250 g ai/ha, scale 0 to 100 (0 no effect, 100 complete control)
[6] = Preemergence, 31 g ai/ha, scale 0 to 100, 0 is no effect and 100 is complete control
[7] = Preemergence, 62 g ai/ha, scale 0 to 100
[8] = Preemergence, 125 g ai/ha, scale 0 to 100 (0 no effect, 100 complete control)

O=C1NCC(c2ccc(C(F)(F)F)cc2)C1C(=O)Nc1ccccc1F (stereo not drawn) [Compound 79, N-(2-fluorophenyl)-2-oxo-4-[4-(trifluoromethyl)phenyl]-3-pyrrolidinecarboxamide]
Plant response rating, Ducksalad (ducksalad): 90
pest or weed control at 125 g/ha (barnyardgrass; Echinochloa crus-galli, post-emergence, 240 h, Postemergence, 125 g ai/ha, 0 to 100 scale, 0 no effect, 100 complete control, read-out: Plant response rating, Barnyardgrass): 80%
pest or weed control at 500 g/ha (barnyardgrass; Echinochloa crus-galli, post-emergence, 240 h, Postemergence, read-out: Plant response rating, Barnyardgrass): 90%
pest or weed control at 500 g/ha (barnyardgrass; Echinochloa crus-galli, pre-emergence, 240 h, preemergence, read-out: Plant response rating, Barnyardgrass): 90%
Barnyardgrass plant response rating (barnyardgrass; [1]): 80
Wheat plant response rating (wheat; [1]): 0
plant injury at 125 g/ha (wheat; Triticum aestivum, post-emergence, 240 h, Postemergence, 125 g ai/ha, 0 to 100 scale, 0 no effect, 100 complete control, read-out: Plant response rating, Wheat): 30%
plant injury at 500 g/ha (wheat; Triticum aestivum, post-emergence, 240 h, Postemergence, 0 to 100 scale (0 no effect, 100 complete control), read-out: Plant response rating, Wheat): 50%
plant injury at 500 g/ha (wheat; Triticum aestivum, pre-emergence, 240 h, preemergence, 0 to 100 scale, read-out: Plant response rating, Wheat): 20%
Plant response rating, Wheat (wheat (winter wheat); [2]): 0
Plant response rating, Wheat (wheat (winter wheat); [3]): 0
Plant response rating, Wheat (wheat (winter wheat); [4]): 0
Plant response rating, Wheat (wheat (winter wheat); [5]): 0
Wheat plant response rating (wheat (winter wheat); [6]): 10
Plant response rating, Wheat (wheat (winter wheat); [7]): 40
Plant response rating, Wheat (wheat (winter wheat); [8]): 60
Plant response rating (scale of 0 to 100), Wheat (wheat (winter wheat); Preemergence, 250 g ai/ha): 75
Plant response rating, Galium (galium; [2]): 30
Plant response rating, Galium (galium; [3]): 60
Plant response rating, Galium (galium; [4]): 60
Galium plant response rating (galium; [6]): 0
Plant response rating, Galium (galium; [7]): 5
Plant response rating, Galium (galium; [8]): 85
Plant response rating (scale of 0 to 100), Galium (galium; Preemergence, 250 g ai/ha): 90
Plant response rating, Nutsedge, Yellow (nutsedge, yellow; [2]): 0
Plant response rating, Nutsedge, Yellow (nutsedge, yellow; [3]): 0
Plant response rating, Nutsedge, Yellow (nutsedge, yellow; [4]): 0
Plant response rating, Nutsedge, Yellow (nutsedge, yellow; [5]): 0
Nutsedge, Yellow plant response rating (nutsedge, yellow; [6]): 0
Plant response rating, Nutsedge, Yellow (nutsedge, yellow; [7]): 0
Plant response rating, Nutsedge, Yellow (nutsedge, yellow; [8]): 0
Plant response rating (scale of 0 to 100), Nutsedge, Yellow (nutsedge, yellow; Preemergence, 250 g ai/ha): 0
Plant response rating, Blackgrass (blackgrass; [2]): 0
Plant response rating, Blackgrass (blackgrass; [3]): 0
Plant response rating, Blackgrass (blackgrass; [4]): 0
Plant response rating, Blackgrass (blackgrass; [5]): 5
Blackgrass plant response rating (blackgrass; [6]): 0
Plant response rating, Blackgrass (blackgrass; [7]): 65
Plant response rating, Blackgrass (blackgrass; [8]): 85
Plant response rating (scale of 0 to 100), Blackgrass (blackgrass; Preemergence, 250 g ai/ha): 85
pest or weed control at 125 g/ha (pigweed; Amaranthus retroflexus, post-emergence, 240 h, Postemergence, 125 g ai/ha, 0 to 100 scale, 0 no effect, 100 complete control, read-out: Plant response rating, Pigweed): 70%
pest or weed control at 500 g/ha (pigweed; Amaranthus retroflexus, post-emergence, 240 h, Postemergence, 0 to 100 scale (0 no effect, 100 complete control), read-out: Plant response rating, Pigweed): 70%
pest or weed control at 500 g/ha (pigweed; Amaranthus retroflexus, pre-emergence, 240 h, preemergence, 0 to 100 scale, read-out: Plant response rating, Pigweed): 80%
Pigweed plant response rating (pigweed; [1]): 80
Plant response rating, Ryegrass, Italian (ryegrass, Italian; [2]): 0
Plant response rating, Ryegrass, Italian (ryegrass, Italian; [3]): 0
Plant response rating, Ryegrass, Italian (ryegrass, Italian; [4]): 0
Plant response rating, Ryegrass, Italian (ryegrass, Italian; [5]): 0
Ryegrass, Italian plant response rating (ryegrass, Italian; [6]): 0
Plant response rating, Ryegrass, Italian (ryegrass, Italian; [7]): 5
Plant response rating, Ryegrass, Italian (ryegrass, Italian; [8]): 30
Plant response rating (scale of 0 to 100), Ryegrass, Italian (ryegrass, Italian; Preemergence, 250 g ai/ha): 30
Plant response rating, Oilseed Rape (oilseed rape; [2]): 0
Plant response rating, Oilseed Rape (oilseed rape; [3]): 0
Plant response rating, Oilseed Rape (oilseed rape; [4]): 0
Plant response rating, Oilseed Rape (oilseed rape; [5]): 0
Oilseed Rape plant response rating (oilseed rape; [6]): 0
Plant response rating, Oilseed Rape (oilseed rape; [7]): 5
Plant response rating, Oilseed Rape (oilseed rape; [8]): 70
Plant response rating (scale of 0 to 100), Oilseed Rape (oilseed rape; Preemergence, 250 g ai/ha): 80

Reference: patent US10294202B2, “Pyrrolidinones as herbicides” (FMC Corporation, priority 2013, dated 2019)
